Results: patent US20230118467A1, “COSMETIC OR PHARMACEUTICAL USE OF AVENANTHRAMIDE L” (priority 2020, published 2023)
Where “and” joins values, the source holds several entries; their conditions need not be identical. Identical values can stand only once. Like-named read-outs stand apart in the source and are kept apart here.

How the values were obtained:
[1] = Oxidative stability (Oxipress) of avenanthramides in solution; details: for Content after treatment / Degradation in %: 5 bars of oxygen at 70° C. for 24 hours; for Content before treatment: HPLC; for ΔE (colour difference, CIELAB): before vs after 5 bars of oxygen at 70° C. for 24 hours
Description: (§8) Stability under exposure to oxygen and temperature was evaluated for dissolved pure avenanthramides in aqueous ethanolic solution, both alone and as an avenanthramide mixture.
(§9) Avenantharmide mixtures used were DragoCalm® (Symrise; INCI Name: Aqua, Glycerin, Avena Sativa Kernel Extract) or DragoCalm® SP (Symrise; INCI Name: Aqua, Glycerin, Pentylene Glycol, Avena Sativa Kernel Extract).
(§10) The liquids were either exposed to 5 bars of oxygen at 70° C. for 24 hours using the Oxipress device or stored for 2 and 4 weeks at 40° C. in a heating cabinet.
(§11) The content of Avns was determined by HPLC, and the colour was measured by colorimetry (Hach Lange Lico 690 instrument) before and after treatment.
(§12) Color can be determined using the CIELAB color model which is based on an opponent color system. CIELAB indicates the color by values on three axes: L*, a*, and b* with dimension L for lightness and a* and b* for the color-opponent dimensions red/green and yellow/blue, based on nonlinearly compressed coordinates. The L* axis extends from black (0) to white (100), the a* axis from green (−a) to red (+a) and the b* axis from blue (−b) to yellow (+b).
(§13) The difference of 2 colors ΔE can be calculated using the following equation:
(§14) ΔEp,v=√{square root over ((Lp*−Lv*)^2+(ap*−av*)^2+bp*−bv*)^2)}
(§15) A difference of ΔE of 0.5-1 can be visually observed by a trained evaluator by naked eye. A difference of 2-4 can be observed visually also by a non-trained evaluator.

BLVRB = assay: Gene expression in neonatal human epidermal keratinocytes (real-time PCR): BLVRB; type: cell-based; details: 100 μM, 24 hours, nHEK, RQ ≥2.0 relevant
Description: (§1) Neonatal human epidermal keratinocytes (nHEK) were cultivated in an EpiLife® medium (Gibco) including an HKGS kit (Gibco) with 5% C02 at 37° C. in accordance with the supplier's instructions.
(§2) The cells were treated for 24 hours, with the test compounds dissolved in DMSO and DMSO alone as the vehicle control. Genomic target expression levels in treated cells were measured using a quantitative Real-Time PCR comparison to vehicle control treatment.
(§3) RNA was isolated using Qiagen's RNeasy® Mini Kit. The total RNA concentrations were measured using Eppendorf's pCuvetteG 1.0 and BioPhotometer, by measuring the absorption at 260 nm. Purity control values such as E260/280 and E260/230 were calculated simultaneously. Reverse transcription was performed using the high-capacity RNA-to-cDNA kit of Applied Biosystems, in accordance with the supplier's instructions. Samples were treated in Biometra's PCR Thermocycler.
(§4) For fast real-time PCR, the cDNA was diluted with RNase-free water, and the TaqMan™ Fast Universal PCR Master Mix of Applied Biosystems was used.
(§5) Quantitative real-time PCR was performed using the StepOnePlus fast real-time PCR instrument by Applied Biosystems. Analysis was conducted using the StepOne software and 2^−ΔΔct method (normalised to endogenous control […] expression).
(§6) For upregulations, RQ values ≥2.0 are considered to be relevant. […]

[2] = Radical-scavenging activity (ABTS assay); type: biochemical; details: absorption at 734 nm
Description: The ABTS assay measures the relative ability of antioxidants to scavenge the ABTS radical generated in aqueous phase, as compared with a Trolox (water-soluble vitamin E analogue) standard. The green-blue stable radical cationic chromophore 2,2′-azino-bis(3-ethylbenzothiazoline-6-sulphonate) (ABTS^•+) is generated by reaction with the ABTS salt using a strong oxidising agent (for example potassium permanganate or potassium persulphate) and has absorption maxima at 414, 645, 734 and 815 nm. The reduction of the blue-green ABTS radical by hydrogen-donating antioxidants is measured by the suppression of its characteristic long wave absorption spectrum.
With the aid of the ABTS assay, the antioxidative capacity of Avn L and Avn A were evaluated and compared.
2,2′-azino-bis-(3-ethylbenzothiazoline-6-sulphonic acid) (ABTS) was transformed into the blue-green radical cation ABTS^•+ using potassium persulphate. Through the addition of [6]-paradol and alpha-tocopherol, the radical cations were reduced and discoloration was observed, as determined photometrically by absorption at 734 nm. Inhibition of radical formation in the test substance is calculated by the following formula: […]
where • Atest substance is the absorption in the wells with the test substance including [6]-paradol and alpha-tocopherol • Acontrol is the absorption in the wells with no test substance.
Values for IC50 (the concentration at which radical formation is inhibited by 50%) were calculated from the inhibition of radical formation [%] in a series of dilutions of tested samples.

tachykinin NK1 receptor = target: T1, tachykinin NK1 receptor (Homo sapiens, UniProt P25103); assay: NK1 receptor inhibition study, radioligand binding assay ([3H] Substance P); details: for inhibition at 0.1 ppm / inhibition at 1 ppm / inhibition at 10 ppm / inhibition at 100 ppm / inhibition at 125 ppm: read-out: Percent inhibition of specific binding to the tachykinin NK1 receptor; for inhibition at 125 ppm: test concentration 125 ppm (Example 7)
T1 construct: expressed in transfected cells; host or cells: CHO cells
Description: The inhibition activity of avenanthramide L versus dihydroavenanthramide D and the structurally related avenanthramides A and D was evaluated in a radioligand binding assay.
The method employed in this study was adapted from the scientific literature so as to maximise reliability and reproducibility. Reference compound L-703,606 was run as an integral part of each experiment, to ensure the validity of the results obtained. The assay was performed under the conditions described in the following respective method.
Source: Human recombinant CHO cells
Incubation time/temperature: 90 minutes at 4° C. Incubation buffer: 20 mM HEPES, pH 7.4, • 1 mM MnCl2 • 0.1% BSA
Ligand: 0.80 nM [3H] Substance P
Non-specific ligand: 10.0 μM L-703,606 oxalate salt (CAS 144425-84-3) Specific binding: 90% Significance criteria: ≥50% of max. stimulation or inhibition Bmax: 1.70 pmol/mg protein
In another experiment, the inhibitory activity of a combination of avenanthramide L and another avenanthramide was evaluated in comparison to both substances alone in the radioligand binding assay as described in Example 1 to investigate a potential synergism.

[3] = test system: Primary human dermal fibroblasts; assay: Cellular antioxidant activity (DCF-DA assay); type: cell-based; details: 24 h incubation, prooxidant challenge 1 mM 1 h; for inhibition at 500 µM: Homo sapiens, Fibroblast, read-out: Inhibition of oxidation
Description: The DCF-DA assay is a fluorometric microplate assay for the detection of oxidative stress by detecting oxidation of 2′,7′-dichlorofluorescein-diacetate (DCF-DA) into the highly fluorescent compound 2′,7′-dichlorofluorescein (DCF) due to the presence of reactive oxygen species (ROS). The DCF-DA assay allows the cellular antioxidant activity of a substance to be determined.
Primary human dermal fibroblasts were seeded in a 96-well microtiter plate at a concentration of 0.5×10^4 cells/well. Cultivation took place at 37° C. and 5% CO2 in DMEM, enriched with 10% foetal calf serum. Confluence was supposed to be around 70% at the time, the incubation with the test substances began. The test substances were applied to the cells at a concentration of 500 μM. After 24 h of incubation, 100 μL H2DCF-DA-solution (10 μM) incl. DAPI (1:1000) was added to all samples (excluded the background-control) and incubated for one hour to deesterify the H2DCF-DA by cellular esterases. The resulting H2DCF was thereby trapped inside the cell. After the incubation, the cells were washed and the prooxidant challenge was set (1 mM, 1 h). The resulting fluorescence was read at λex 504 nm; λem 524 nm. An increased level of ROS (reactive oxygen species) led to an increased amount of fluorescence.
The inhibition of the oxidation in the presence of test substances was calculated according to the following equation: […]
The abbreviations have the following meanings: • RFU test substance: Relative fluorescence units of the wells with test substance and with cells • RFU control: Relative fluorescence units of the wells without test substance, but with cells • RFU without cells: Relative fluorescence units of the wells without test substance and without cells (blank)

CD44 = assay: Gene expression in neonatal human epidermal keratinocytes (real-time PCR): CD44; type: cell-based; details: 100 μM, 24 hours, nHEK, RQ ≥2.0 relevant
Description: as §1, §2, §3, §4, §5, §6

[4] = Temperature stability at 40° C. of avenanthramide mixture in solution; type: physicochemical; details: for Content after 2 weeks at 40° C. / Content after 4 weeks at 40° C. / Content before treatment: Avn in mixture DragoCalm (glycerin/water); for Content before treatment: HPLC; for Degradation in %: Avn in mixture DragoCalm
Description: with p=sample 1 and v=sample 2

HSPB2 (=HSP27) = assay: Gene expression in neonatal human epidermal keratinocytes (real-time PCR): HSPB2; type: cell-based; details: 100 μM, 24 hours, nHEK, vs DMSO vehicle; RQ ≥2.0 relevant
Description: as §1, §2, §3, §4, §5
(§7) For upregulations, RQ values ≥2.0 are considered to be relevant.

[5] = 24 h
Description: as §8, §9, §10, §11, §12, §13, §14, §15

CRYAB = assay: Gene expression in neonatal human epidermal keratinocytes (real-time PCR): CRYAB; type: cell-based; details: 100 μM, 24 hours, nHEK, vs DMSO vehicle, RQ ≥2.0 relevant
Description: as §1, §2, §3, §4, §5, §7

HSP90AA1 = assay: Gene expression in neonatal human epidermal keratinocytes (real-time PCR): HSP90AA1; type: cell-based; details: 100 μM, 24 hours, nHEK, vs DMSO vehicle, RQ ≥2.0 relevant
Description: as §1, §2, §3, §4, §5, §7

HPRT1 (housekeeping) = assay: Gene expression in neonatal human epidermal keratinocytes (real-time PCR): HPRT1; type: cell-based; details: 100 μM, 24 hours
Description: as §1, §2, §3, §4, §5, §6

HSP90AB1 = assay: Gene expression in neonatal human epidermal keratinocytes (real-time PCR): HSP90AB1; type: cell-based; details: 100 μM, 24 hours, nHEK, vs DMSO vehicle, RQ ≥2.0 relevant
Description: as §1, §2, §3, §4, §5, §7

[6] = Avn in mixture DragoCalm SP (glycerin/water)
[7] = single Avn in aqueous ethanolic solution (0.01 wt %)

T1 sequence (P25103 whole entry): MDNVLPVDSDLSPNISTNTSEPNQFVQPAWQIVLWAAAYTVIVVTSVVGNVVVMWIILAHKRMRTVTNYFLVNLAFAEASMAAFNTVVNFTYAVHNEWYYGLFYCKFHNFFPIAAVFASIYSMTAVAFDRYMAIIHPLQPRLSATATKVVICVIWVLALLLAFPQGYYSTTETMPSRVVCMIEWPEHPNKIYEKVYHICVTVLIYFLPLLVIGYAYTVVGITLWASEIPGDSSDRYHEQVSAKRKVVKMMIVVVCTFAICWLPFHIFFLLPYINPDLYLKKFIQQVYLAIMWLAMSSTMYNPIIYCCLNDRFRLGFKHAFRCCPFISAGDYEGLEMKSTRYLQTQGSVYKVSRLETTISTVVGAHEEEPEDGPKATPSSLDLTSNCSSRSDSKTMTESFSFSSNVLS

## O=C(C=Cc1ccc(O)cc1)Nc1ccc(O)cc1C(=O)O [Avn A, N-(4′-hydroxycinnamoyl)-5-hydroxyanthranilic acid]
[1]; [6]
  Content after treatment: 34 ppm
  Degradation in %: 3%
  Content before treatment: 35 ppm
[1]; Avn in mixture DragoCalm SP (glycerin/water), listed as Avenanthramide A
  Degradation in %: stable
[1]; [7]
  Content after treatment: 104 ppm
  Degradation in %: 0%
  Content before treatment: 104 ppm
  ΔE (colour difference, CIELAB): 0.2
BLVRB
  RQ value, BLVRB: no effect
[2]; 5 μM
  Mean antioxidant activity (inhibition of radical formation): 40 ± 4%
[2]; 10 μM
  Mean antioxidant activity (inhibition of radical formation): 76 ± 4%
Tachykinin NK1 receptor; test concentration 0.1 ppm
  inhibition at 0.1 ppm: 3%
Tachykinin NK1 receptor; test concentration 1 ppm
  inhibition at 1 ppm: 8%
Tachykinin NK1 receptor; test concentration 10 ppm
  inhibition at 10 ppm: 14%
Tachykinin NK1 receptor; test concentration 100 ppm
  inhibition at 100 ppm: 21%
Tachykinin NK1 receptor
  inhibition at 125 ppm: 9%
[3]
  inhibition at 500 µM: 14 ± 6%
CD44
  RQ value, CD44: no effect
[4]
  Content after 2 weeks at 40° C.: 50 ppm
  Content after 4 weeks at 40° C.: 50 ppm
  Content before treatment: 50 ppm
HSPB2 (=HSP27)
  RQ value, HSPB2 (=HSP27): 1.9

## O=C(C=Cc1ccc(O)c(O)c1)Nc1ccc(O)cc1C(=O)O [Avn C, N-(3′-4′-dihydroxycinnamoyl)-5-hydroxyanthranilic acid]
[1]; [6]
  Content after treatment: <1 ppm
  Degradation in %: 100%
  Content before treatment: 10 ppm
[1]; Avn in mixture DragoCalm SP (glycerin/water), listed as Avenanthramide C
  Degradation in %: completely degraded
[1]; [7]
  Content after treatment: 89 ppm
  Degradation in %: 15%
  Content before treatment: 105 ppm
  ΔE (colour difference, CIELAB): 2.3
Tachykinin NK1 receptor; test concentration 0.1 ppm
  Percent inhibition of specific binding to the tachykinin NK1 receptor: 9%
Tachykinin NK1 receptor; test concentration 1 ppm
  Percent inhibition of specific binding to the tachykinin NK1 receptor: 15%
Tachykinin NK1 receptor; test concentration 10 ppm
  Percent inhibition of specific binding to the tachykinin NK1 receptor: 27%
Tachykinin NK1 receptor; test concentration 100 ppm
  Percent inhibition of specific binding to the tachykinin NK1 receptor: 94%
[4]
  Content after 2 weeks at 40° C.: 16 ppm
  Content after 4 weeks at 40° C.: 10 ppm
  Content before treatment: 20 ppm
[4]; after 2 weeks at 40° C.
  Degradation in %: 20%
[4]; after 4 weeks at 40° C.
  Degradation in %: 50%

## O=C(/C=C/C=C/c1ccc(O)cc1)Nc1ccc(O)cc1C(=O)O [Avn L, 5-hydroxy-2-[(2E,4E)-5-(4-hydroxyphenyl)penta-2,4-dienamido]benzoic acid]
[5]
  Degradation in %: 13%
[5]; 0.01 wt %
  Degradation in %: 3%
CRYAB
  RQ value, CRYAB: 2.1 and 1.6
CRYAB; listed as avenanthramide L
  RQ value, CRYAB: upregulates
[1]; [6]
  Content after treatment: 7 ppm
  Content before treatment: 8 ppm
[1]; [7]
  Content after treatment: 100 ppm
  Content before treatment: 103 ppm
  ΔE (colour difference, CIELAB): 0.6
BLVRB; listed as avenanthramide L
  RQ value, BLVRB: upregulates
HSP90AA1
  RQ value, HSP90AA1: 0.9
HSP90AA1; listed as avenanthramide L
  RQ value, HSP90AA1: no effect
HPRT1 (housekeeping); nHEK (Example 4 gene array)
  RQ value, HPRT1 (housekeeping): 1.0
HPRT1 (housekeeping); nHEK, vs DMSO vehicle (Example 3)
  RQ value, HPRT1 (housekeeping): 1.0
[2]; 5 μM
  Mean antioxidant activity (inhibition of radical formation): 40 ± 4%
[2]; 5 μM, listed as Avenanthramide L
  Mean antioxidant activity (inhibition of radical formation): at least 40%
[2]; 10 μM
  Mean antioxidant activity (inhibition of radical formation): 74 ± 4%
[2]; 10 μM, listed as avenanthramide L
  Mean antioxidant activity (inhibition of radical formation): at least 70%
Tachykinin NK1 receptor; test concentration 0.1 ppm
  inhibition at 0.1 ppm: 9%
Tachykinin NK1 receptor; test concentration 1 ppm
  inhibition at 1 ppm: 15%
Tachykinin NK1 receptor; test concentration 10 ppm
  inhibition at 10 ppm: 20%
Tachykinin NK1 receptor; test concentration 100 ppm
  inhibition at 100 ppm: 42%
Tachykinin NK1 receptor
  inhibition at 125 ppm: 37%
[3]; 500 μM
  Inhibition of oxidation: higher antioxidant activity than avenanthramide A
[3]
  inhibition at 500 µM: 49 ± 7%
HSP90AB1
  RQ value, HSP90AB1: 0.4 and 0.5
HSP90AB1; listed as avenanthramide L
  RQ value, HSP90AB1: no effect
CD44; listed as avenanthramide L
  RQ value, CD44: upregulates
[4]
  Content after 2 weeks at 40° C.: 11 ppm
  Content after 4 weeks at 40° C.: 10 ppm
  Content before treatment: 11 ppm
[4]; after 4 weeks at 40° C.
  Degradation in %: 9%

## O=C(CCc1ccc(O)cc1)Nc1ccccc1C(=O)O [Dihydroavenanthramide D, dihydroavenanthramide D]
Tachykinin NK1 receptor; test concentration 0.1 ppm
  Percent inhibition of specific binding to the tachykinin NK1 receptor: 8%
Tachykinin NK1 receptor; test concentration 1 ppm
  Percent inhibition of specific binding to the tachykinin NK1 receptor: 6%
Tachykinin NK1 receptor; test concentration 10 ppm
  Percent inhibition of specific binding to the tachykinin NK1 receptor: 8%
Tachykinin NK1 receptor; test concentration 100 ppm
  Percent inhibition of specific binding to the tachykinin NK1 receptor: 19%
